Measured values from US7897588B2, “Agents and methods for enhancing bone formation” (The Regents of the University of California, priority 2003, dated 2011).

Experiments:
[1] = test system: M2-10B4 mouse marrow stromal cell line; assay: Matrix mineralization in M2 cells (von Kossa staining, 45Ca incorporation assay); assay type: cell-based
Description: Cells: M2-10B4 mouse marrow stromal cell line obtained from American Type Culture Collection (ATCC, Rockville, Md., U.S.A.) was derived from bone marrow stromal cells of a (C57BL/6J×C3H/HeJ) F1 mouse, and support human and murine myelopoiesis in long-term cultures (as per ATCC) and have the ability to differentiate into osteoblastic and adipocytic cells. Unless specified, these cells were cultured in RPMI 1640 containing 10% heat-inactivated FBS, and supplemented with 1 mM sodium pyruvate, 100 U/ml penicillin, and 100 […] (all from Irvine Scientific).
(§1) Von Kossa and oil red O staining—Matrix mineralization in cell monolayers was detected by silver nitrate staining as previously described. Oil red O staining for detection of adipocytes was performed as previously described.
^45Ca incorporation assay—Matrix mineralization in cell monolayers was quantified using the ^45Ca incorporation assay as previously described.
M2 cells at confluence were treated in osteogenic medium with control vehicle or 5 μM oxysterols, alone or in combination as indicated. After 14 days, mineralization was identified by a von Kossa staining, which appears black. FIG. 3C is a depiction of von Kossa staining of M2 cells exposed to various conditions.
M2 cells were treated with control vehicle (C) or a combination of 22R and 20S oxysterols at increasing concentrations. After 14 days, matrix mineralization in cultures was quantified using a ^45Ca incorporation assay. […] FIG. 3D is a bar graph depicting the effect of a combination of oxysterols at various doses on calcium incorporation in M2 cells.
Next, a combination of 22R and 20S oxysterols (RS, 2.5 μM each) were added in the presence or absence of SC as indicated. After 3 days, ALP activity was measured as described earlier. […] (B) M2 cells were treated as described in (A) and after 10 days matrix mineralization in cultures was quantified by a ^45Ca incorporation assay as described earlier. Results from a representative of three experiments are shown, reported as the mean±SD of quadruplicate determinations, normalized to protein concentration. (C) M2 cells were pretreated with 20 μM SC for 4 hours, followed by the addition of RS in the presence or absence of SC as described above. After 8 days, total RNA was isolated and analyzed for osteocalcin (Osc) and 18S rRNA expression by Northern blotting as previously described. Data from densitometric analysis of the Northern blot is shown in (D) as the average of duplicate samples, normalized to 18S rRNA. (E) M2 cells at confluence were pretreated for 2 hours with control vehicle (C), or PLA2 inhibitors ACA (25 μM) and AACOCF3 (AAC, 20 μM), in osteogenic medium. Next, a combination of 22R and 20S oxysterols (RS, 2.5 μM) was added in the presence or absence of the inhibitors as indicated. After 3 days, ALP activity was measured as previously described. Data from a representative of three experiments are shown, reported as the mean±SD of quadruplicate determinations, normalized to protein concentration (p<0.01 for RS vs. RS+ACA and RS+AAC). (F) M2 cells were treated as described in (E). After 10 days, matrix minerliazation in cultures was quantified using a ^45Ca incorporation assay as previously described. Results from a representative of three experiments are shown, reported as the mean of quadruplicate determinations±SD, normalized to protein concentration (p<0.01 for RS vs. RS+ACA and RS+AAC).
(A) M2 cells at confluence were pretreated for four hours with RPMI containing 1% FBS, followed by treatment with control vehicle or 5 μM 20S oxysterol for 1, 4, or 8 hours. Next total cell extracts were prepared and analyzed for levels of native or phosphorylated ERK (pERK) using specific antibodies as previously described.

M2 cells = assay: Adipogenesis of troglitazone-treated M2 cells (oil Red O staining, adipocyte count); assay type: cell-based, mouse; conditions: M2 cells treated with Tro 10 μM, oxysterols 10 μM, 10 days
Description: as §1
Test 1: M2 cells at 90% confluence were treated with vehicle (C), PPAR-γ activator, troglitazone 10 uM (Tro), alone or in combination with 10 μM oxysterols 20S-, 22R-, or 25S-hydroxycholesterol. After 8 days, adipocytes were identified by oil Red 0 staining and quantified by counting under a phase contrast microscope. FIG. 6A is a bar graph depicting the effect of oxysterols on reducing adipogenesis of MSC.
Test 2: (A) M2 cells at confluence were treated in RPMI containing 10% FBS with control vehicle or 10 μM troglitazone (Tro) in the absence or presence of 10 μM 20S or 22S oxysterols. After 10 days, adipocytes were visualized by oil Red O staining and quantified by light microscopy, shown in (B). Data from a representative of four experiments are shown, reported as the mean SD of quadruplicate determinations (p<0.001 for Tro vs. Tro+20S and Tro+22S). (C) M2 cells were treated at confluence with 10 μM Tro, alone or in combination with 10 μM 20S oxysterol. After 10 days, total RNA was isolated and analyzed for lipoprotein lipase (LPL), adipocyte P2 gene (aP2) or 18S rRNA expression by Northern blotting as described (Ref). Data from densitometric analysis of the Northern blot is shown in (D) as the average of duplicate samples, normalized to 18S rRNA.

lipoprotein lipase (LPL) = assay: Northern blot for lipoprotein lipase in troglitazone-treated M2 cells; assay type: cell-based, mouse; conditions: 10 μM Tro, 10 μM 20S, 10 days
Description: (§2) RNA isolation and Northern blot analysis—Following treatment of cells under appropriate experimental conditions, total RNA was isolated using the RNA isolation kit from Stratagene (La Jolla, Calif., U.S.A.). Total RNA ([…]) was run on a 1% agarose/formaldehyde gel and transferred to Duralon-UV membranes (Strategene, Calif., U.S.A.) and cross-linked with UV light. The membranes were hybridized overnight at 60 degree C. with ^32P-labeled mouse osteocalcin cDNA probe, mouse lipoprotein lipase (LPL), mouse adipocyte protein 2 (aP2) PCR-generated probes, human 28S or 18S rRNA probes obtained from Geneka Biotechnology (Montreal, Quebec, Canada) and Maxim Biotech (San Francisco, Calif., U.S.A.), respectively. […] The extent of gene induction was determined by densitometry.
(§3) Test 2: (A) M2 cells at confluence were treated in RPMI containing 10% FBS with control vehicle or 10 μM troglitazone (Tro) in the absence or presence of 10 μM 20S or 22S oxysterols. After 10 days, adipocytes were visualized by oil Red O staining and quantified by light microscopy, shown in (B). […] After 10 days, total RNA was isolated and analyzed for lipoprotein lipase (LPL), adipocyte P2 gene (aP2) or 18S rRNA expression by Northern blotting as described (Ref). […]

adipocyte P2 gene (aP2) = assay: Northern blot for adipocyte P2 gene in troglitazone-treated M2 cells; assay type: cell-based, mouse; conditions: 10 μM Tro, 10 μM 20S, 10 days
Description: as §2, §3

[2] = individual oxysterols 0.5-10 μM or combinations, up to 14 days

| Compound | induction of mineralization [1, 2] | inhibition of adipogenesis (M2 cells) | expression of lipoprotein lipase (LPL) (lipoprotein lipase (LPL)) | expression of adipocyte P2 gene (aP2) (adipocyte P2 gene (aP2)) | induction of mineralization ([1]; TO treatment, after 10 days) |
| --- | --- | --- | --- | --- | --- |
| CC(C)CCC[C@](C)(O)[C@H]1CC[C@H]2[C@@H]3CC=C4C[C@@H](O)CC[C@]4(C)[C@H]3CC[C@@]21C [20S, 20(S)-hydroxycholesterol] | unable to induce | inhibited adipogenesis | inhibition | inhibition | – |
| CC(C)CC[C@@H](O)[C@@H](C)[C@H]1CC[C@H]2[C@@H]3CC=C4C[C@@H](O)CC[C@]4(C)[C@H]3CC[C@]12C [22R, 22(R)-hydroxycholesterol] | unable to induce | inhibited adipogenesis | – | – | – |
| CC(C)CC[C@H](O)[C@@H](C)[C@H]1CC[C@H]2[C@@H]3CC=C4C[C@@H](O)CC[C@]4(C)[C@H]3CC[C@]12C [22S, 22(S)-hydroxycholesterol] | unable to induce | inhibited adipogenesis | – | – | – |
| O=S(=O)(c1ccccc1)N(CC(F)(F)F)c1ccc(C(O)(C(F)(F)F)C(F)(F)F)cc1 [TO, TO-901317] | – | – | – | – | did not induce |
